The target of test [1] is T1, BTK (Homo sapiens, UniProt Q06187).
T1 construct: purchased Upstate 14-552
As to the kind of experiment: In Vitro BTK Kinase Assay: Btk-PolyGAT-LS Assay. The following applies: active BTK enzyme 0.25 nM, polyGAT 100 nM, 30 minutes, TRF readout; read-out: In Vitro BTK Kinase Assay IC50 Score. The test is classed as biochemical. The gist of the method: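 Active BTK at 0.25 nM phosphorylated 100 nM fluorescein-polyGAT peptide at 10 μM ATP for 30 minutes. Buffer was Tris pH 7.5 with MgCl2, DTT, Triton X-100 and casein, and reactions were stopped with EDTA. Phospho-peptide was detected by Tb-PY20 antibody TR-FRET, and IC50 came from a four-parameter fit normalized to DMSO and EDTA controls.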

In test [2] the test system is CD69 expression on CD19+ B cells in human whole blood. The test can be described thus: In Vitro whole blood CD69 Assay. Particulars: B-cell; human heparinized whole blood, anti-human IgD stimulation overnight, CD19+ B cells, flow cytometry; read-out: In Vitro HWB CD69 Assay IC50 Score. The test is classed as cell-based. The gist of the method:
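Heparinized healthy-donor human whole blood was preincubated with compound (0.1% DMSO) for 30 min at 37 °C. Stimulation used 0.1 µg/mL anti-IgD-dextran or 20 µg/mL rabbit F(ab′)2 anti-IgD for 18–22 h at 37 °C. CD69 on gated CD19+ B cells was then measured by flow cytometry.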

A word on the IC50: it is the concentration that inhibits the measured activity by half.

Each structure is given as a SMILES string. Where a name gives a salt, the structure may show the parent alone.

T1 sequence (Q06187 whole entry): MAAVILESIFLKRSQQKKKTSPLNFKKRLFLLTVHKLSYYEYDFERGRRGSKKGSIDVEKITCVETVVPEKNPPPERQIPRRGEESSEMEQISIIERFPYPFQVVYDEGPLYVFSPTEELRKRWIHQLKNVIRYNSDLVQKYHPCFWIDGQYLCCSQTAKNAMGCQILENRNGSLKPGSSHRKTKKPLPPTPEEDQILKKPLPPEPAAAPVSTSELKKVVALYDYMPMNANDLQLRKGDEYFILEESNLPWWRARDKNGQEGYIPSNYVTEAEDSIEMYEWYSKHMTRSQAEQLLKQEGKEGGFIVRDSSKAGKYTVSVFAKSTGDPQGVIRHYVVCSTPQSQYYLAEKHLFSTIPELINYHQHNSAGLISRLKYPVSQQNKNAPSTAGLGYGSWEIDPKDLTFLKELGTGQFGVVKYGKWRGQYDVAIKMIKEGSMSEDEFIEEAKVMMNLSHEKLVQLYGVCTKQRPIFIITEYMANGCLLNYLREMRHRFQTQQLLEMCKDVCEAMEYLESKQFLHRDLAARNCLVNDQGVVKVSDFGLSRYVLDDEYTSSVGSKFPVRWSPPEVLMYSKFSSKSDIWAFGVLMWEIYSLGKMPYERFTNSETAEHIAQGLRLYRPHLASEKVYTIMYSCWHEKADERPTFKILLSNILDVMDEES

Consider `Cn1cc(-c2cn3nccc3c(N3CCC(C)(CNC(=O)c4cnc(C(C)(C)C)o4)CC3)n2)cn1` [Example 45, 2-(tert-butyl)-N-((4-methyl-1-(6-(1-methyl-1H-pyrazol-4-yl)pyrazolo[1,5-a]pyrazin-4-yl)piperidin-4-yl)methyl)oxazole-5-carboxamide], for which the IC50 in test [1] lay in the range of 0.01 to 1 µM; in test [2] it was 1 to 10 µM.
Take `Cn1cc(-c2cn3nccc3c(N3CC[C@H](CNC(=O)c4noc(C(C)(C)C)n4)[C@H](F)C3)n2)cn1` (single isomer, unassigned) [Example 155]: the IC50 in test [1] was in the range of 0.001 to 0.01 µM; in test [2], 1 to 10 µM.
For the molecule `Cc1cc(-c2nc(-c3cnn(C)c3)cn3nccc23)ccc1CNC(=O)c1noc(C(C)(C)C)n1` [Example 80, 5-(tert-butyl)-N-(2-methyl-4-(6-(1-methyl-1H-pyrazol-4-yl)pyrazolo[1,5-a]pyrazin-4-yl)benzyl)-1,2,4-oxadiazole-3-carboxamide], the IC50 in test [1] is less than 0.001 µM; in test [2] it was less than 1 µM.
In the case of `Cc1c(CNC(=O)c2noc(C(C)(C)C)n2)ccc(-c2nc(-c3cnn(C)c3)cn3nccc23)c1F` [Example 81, 5-(tert-butyl)-N-(3-fluoro-2-methyl-4-(6-(1-methyl-1H-pyrazol-4-yl)pyrazolo[1,5-a]pyrazin-4-yl)benzyl)-1,2,4-oxadiazole-3-carboxamide], the IC50 in test [1] was less than 0.001 µM; in test [2], less than 1 µM.
`Cn1cc(-c2cn3nccc3c(-c3ccc(CNC(=O)c4cn(C(C)(C)C)nn4)c(F)c3F)n2)cn1` [Example 93, 1-(tert-butyl)-N-(2,3-difluoro-4-(6-(1-methyl-1H-pyrazol-4-yl)pyrazolo[1,5-a]pyrazin-4-yl)benzyl)-1H-1,2,3-triazole-4-carboxamide]: the IC50 was less than 0.001 µM in test [1] and less than 1 µM in test [2].
Turning to `Cn1cc(-c2cn3nccc3c(N3CCC(CNC(=O)c4cn(C(C)(C)C)nn4)CC3)n2)cn1` [Example 138, 1-(tert-butyl)-N-((1-(6-(1-methyl-1H-pyrazol-4-yl)pyrazolo[1,5-a]pyrazin-4-yl)piperidin-4-yl)methyl)-1H-1,2,3-triazole-4-carboxamide], the IC50 in test [1] fell in the range of 0.001 to 0.01 µM; in test [2] it was 1 to 10 µM.
With `Cc1cc(-c2nc(-c3cnn(C)c3)cn3nccc23)ccc1CNC(=O)c1cnn(C(C)(C)C)c1` [Example 17, 1-(tert-butyl)-N-(2-methyl-4-(6-(1-methyl-1H-pyrazol-4-yl)pyrazolo[1,5-a]pyrazin-4-yl)benzyl)-1H-pyrazole-4-carboxamide], the IC50 was less than 0.001 µM in test [1] and less than 1 µM in test [2].
The matching figures for `Cn1cc(-c2cc(-c3ccc(CNC(=O)c4noc(C5(C)CC5)n4)cc3)n3cnnc3c2)cn1` [Example 76, N-(4-(7-(1-methyl-1H-pyrazol-4-yl)-[1,2,4]triazolo[4,3-a]pyridin-5-yl)benzyl)-5-(1-methylcyclopropyl)-1,2,4-oxadiazole-3-carboxamide]: 0.01 to 1 µM and 1 to 10 µM.
Take `Cc1cc(-c2nc(-c3cnn(C)c3)cn3nccc23)ccc1CN1CCN(CC(C)C)CC1=O` [Example 30, 4-isobutyl-1-(2-methyl-4-(6-(1-methyl-1H-pyrazol-4-yl)pyrazolo[1,5-a]pyrazin-4-yl)benzyl)piperazin-2-one]: the IC50 in test [1] lay in the range of 0.001 to 0.01 µM; in test [2], 1 to 10 µM.
Regarding `Cn1cc(-c2cn3nccc3c(-c3ccc(CNC(=O)c4ccn(C(C)(C)C)n4)c(F)c3)n2)cn1` [Example 11, 1-(tert-butyl)-N-(2-fluoro-4-(6-(1-methyl-1H-pyrazol-4-yl)pyrazolo[1,5-a]pyrazin-4-yl)benzyl)-1H-pyrazole-3-carboxamide], the half-maximal inhibitory concentration (IC50) in test [1] was 0.001 to 0.01 µM; in test [2] it was 1 to 10 µM.
In the case of `Cn1cc(-c2cn3nccc3c(-c3ccc(CNC(=O)c4noc(C5(C)CC5)n4)cc3)n2)cn1` [Example 5, N-(4-(6-(1-methyl-1H-pyrazol-4-yl)pyrazolo[1,5-a]pyrazin-4-yl)benzyl)-5-(1-methylcyclopropyl)-1,2,4-oxadiazole-3-carboxamide], the IC50 in test [1] was less than 0.001 µM; in test [2], less than 1 µM.
In the case of `Cc1c(CNC(=O)c2noc(C(C)(C)C)n2)ccc(-c2nc(-c3cnn(C)c3)cc3nccn23)c1F` [Example 79, 5-(tert-butyl)-N-(3-fluoro-2-methyl-4-(7-(1-methyl-1H-pyrazol-4-yl)imidazo[1,2-c]pyrimidin-5-yl)benzyl)-1,2,4-oxadiazole-3-carboxamide], the results for the IC50 in test [1] and in test [2] were less than 0.001 µM and less than 1 µM, respectively.
`Cn1cc(-c2cc3nccn3c(-c3ccc(CNC(=O)c4nc(C(C)(C)C)no4)cc3)n2)cn1` [Example 64, 3-(tert-butyl)-N-(4-(7-(1-methyl-1H-pyrazol-4-yl)imidazo[1,2-c]pyrimidin-5-yl)benzyl)-1,2,4-oxadiazole-5-carboxamide]: the values for the IC50 in test [1] and in test [2] were less than 0.001 µM and less than 1 µM, respectively.
On the same counts, the results for `CN1CCN(c2cn3nccc3c(-c3ccc(CNC(=O)c4cn(C(C)(C)C)nn4)c(F)c3)n2)CC1` [Example 128, 1-(tert-butyl)-N-(2-fluoro-4-(6-(4-methylpiperazin-1-yl)pyrazolo[1,5-a]pyrazin-4-yl)benzyl)-1H-1,2,3-triazole-4-carboxamide trifluoroacetate] are 0.01 to 1 µM and 1 to 10 µM.
The matching figures for `Cn1cc(-c2cn3nccc3c(-c3ccc(CNC(=O)c4nc(C(C)(C)C)no4)cc3F)n2)cn1` [Example 108, 3-(tert-butyl)-N-(3-fluoro-4-(6-(1-methyl-1H-pyrazol-4-yl)pyrazolo[1,5-a]pyrazin-4-yl)benzyl)-1,2,4-oxadiazole-5-carboxamide]: less than 0.001 µM and less than 1 µM.
`Cn1cc(-c2cn3nccc3c(N3CCC(F)(CNC(=O)c4noc(C5(C)CC5)n4)CC3)n2)cn1` [Example 161, N-((4-fluoro-1-(6-(1-methyl-1H-pyrazol-4-yl)pyrazolo[1,5-a]pyrazin-4-yl)piperidin-4-yl)methyl)-5-(1-methylcyclopropyl)-1,2,4-oxadiazole-3-carboxamide trifluoroacetate]: the values for the IC50 in test [1] and in test [2] were 0.001 to 0.01 µM and 1 to 10 µM, respectively.
Take `Cn1cc(-c2cn3nccc3c(-c3ccc(CNC(=O)c4cnn(C(C)(C)C)n4)c(F)c3F)n2)cn1` [Example 92, 2-(tert-butyl)-N-(2,3-difluoro-4-(6-(1-methyl-1H-pyrazol-4-yl)pyrazolo[1,5-a]pyrazin-4-yl)benzyl)-2H-1,2,3-triazole-4-carboxamide]: the IC50 in test [1] was less than 0.001 µM; in test [2] it was less than 1 µM.
Consider `CC(C)CN1CCN(Cc2ccc(-c3nc(-c4cnn(C)c4)cn4nccc34)cc2F)C(=O)C1` [Example 34, 1-(2-fluoro-4-(6-(1-methyl-1H-pyrazol-4-yl)pyrazolo[1,5-a]pyrazin-4-yl)benzyl)-4-isobutylpiperazin-2-one], for which the IC50 in test [1] was 0.001 to 0.01 µM; in test [2], 1 to 10 µM.
For the molecule `Cn1cc(-c2cn3ncnc3c(N3CCC(CNC(=O)c4cn(C(C)(C)C)nn4)CC3)n2)cn1` [Example 74, 1-(tert-butyl)-N-((1-(6-(1-methyl-1H-pyrazol-4-yl)-[1,2,4]triazolo[1,5-a]pyrazin-8-yl)piperidin-4-yl)methyl)-1H-1,2,3-triazole-4-carboxamide], the IC50 in test [1] was 0.01 to 1 µM; in test [2], 1 to 10 µM.
With `Cn1cc(-c2cc(-c3ccc(CNC(=O)c4nc(C(C)(C)CF)no4)c(F)c3)c3ccnn3c2)cn1` [Example 71, 3-(1-fluoro-2-methylpropan-2-yl)-N-(2-fluoro-4-(6-(1-methyl-1H-pyrazol-4-yl)pyrazolo[1,5-a]pyridin-4-yl)benzyl)-1,2,4-oxadiazole-5-carboxamide], the figures for the IC50 in test [1] and in test [2] were less than 0.001 µM and less than 1 µM, respectively.
Regarding `Cn1cc(-c2cc3nccn3c(-c3ccc(CNC(=O)c4cnn(C(C)(C)C)c4)cc3)n2)cn1` [Example 57, 1-(tert-butyl)-N-(4-(7-(1-methyl-1H-pyrazol-4-yl)imidazo[1,2-c]pyrimidin-5-yl)benzyl)-1H-pyrazole-4-carboxamide], the IC50 in test [1] lay within 0.001 to 0.01 µM; in test [2], 1 to 10 µM.
For the molecule `Cn1cc(-c2cn3nccc3c(-c3ccc4c(c3)CN(CC(F)(F)F)CC[C@H]4NC(=O)c3cn(C(C)(C)C)nn3)n2)cn1` [Example 40, (R)-1-(tert-butyl)-N-(8-(6-(1-methyl-1H-pyrazol-4-yl)pyrazolo[1,5-a]pyrazin-4-yl)-2-(2,2,2-trifluoroethyl)-2,3,4,5-tetrahydro-1H-benzo[c]azepin-5-yl)-1H-1,2,3-triazole-4-carboxamide], the figures for the IC50 in test [1] and in test [2] were 0.001 to 0.01 µM and less than 1 µM, respectively.
With `CC(C)(C)c1noc(C(=O)NCc2ccc(-c3nc(N4CCOCC4)cn4nccc34)cc2)n1` [Example 24, 3-(tert-butyl)-N-(4-(6-morpholinopyrazolo[1,5-a]pyrazin-4-yl)benzyl)-1,2,4-oxadiazole-5-carboxamide], the IC50 lay in the range of 0.01 to 1 µM in test [1] and 1 to 10 µM in test [2].
Take `Cn1cc(-c2cc3nccn3c(-c3ccc(CNC(=O)c4nnc(C(C)(C)C)o4)cc3)n2)cn1` [Example 61, 5-(tert-butyl)-N-(4-(7-(1-methyl-1H-pyrazol-4-yl)imidazo[1,2-c]pyrimidin-5-yl)benzyl)-1,3,4-oxadiazole-2-carboxamide]: the IC50 is 0.01 to 1 µM in test [1] and 1 to 10 µM in test [2].
With `Cc1cc(-c2nc(-c3cnn(C)c3)cn3nccc23)ccc1CN1CCN(CC(C)(C)C)CC1=O` [Example 31, 1-(2-methyl-4-(6-(1-methyl-1H-pyrazol-4-yl)pyrazolo[1,5-a]pyrazin-4-yl)benzyl)-4-neopentylpiperazin-2-one], the results for the IC50 in test [1] and in test [2] were 0.001 to 0.01 µM and 1 to 10 µM, respectively.

(Values after US20250034150A1, “BTK INHIBITORS” (BIOGEN MA INC., priority 2021, published 2025).)
